Consider one compound from US20250152616A1, “COMPOSITIONS FOR AND METHODS OF TREATING, PREVENTING, AND/OR MITIGATING PAIN” (Duke University, priority 2022, published 2025).

The subject of assay [1] is mouse model of stabilized unilateral tibial fracture. Kind of assay: Open field activity after tibial fracture. The format is in vivo. As to the method: The aim of the experiments described herein was to examine the effectiveness of local delivery of adenosine in tibial bone injury to concurrently attenuate fracture/post-surgical pain while promoting healing. All animal work was performed in compliance with the National Institutes of Health (NIH) and institutional guidelines, and the fracture surgery and biomaterial implantation protocols approved by the Institutional Animal Care and Use Committee at Duke University (Protocol Registry Number A151-20-07) were followed. C57BL/6J mice were used to study fracture nociception and the effect of local delivery of adenosine to mitigate pain and promote bone regeneration. Lepr-cre; tdTomato reporter mice were used for tracing of LepR(+) lineage cells after fracture. To determine the effect of adenosine on pain and healing, fracture surgeries were performed and treated immediately with PEGDA-6ACA-PBA macroporous hydrogels loaded with adenosine as treatment group or without adenosine as control group (Zeng Y, et al. (2020) Adv Mater. 32:e1906022). Behavioral tests for pain and limb function were assessed by weight bearing and open field locomotion. A priori power analysis was used to estimate the sample size requiring a statistical power (1−β) of 80% at the significance level of α=5%. On the basis of the power calculation, the indicated number was 8 animals per group for fracture pain and 4 animals per group for fracture healing. Ten animals per group were used to study the effect of adenosine on fracture pain, and 5 animals per group were used to examine the effect of adenosine on fracture healing. The exclusion criteria for experiments were animals that died due to the surgical procedures or shift of the intramedullary pin identified after experimental endpoint post-mortem. No randomization was used and researchers were not blinded. Measurement of adenosine in the circulation was performed by using an adenosine assay. The in vitro functional activity of DRG neurons was assessed by calcium and membrane potential imaging and the expression of proteins were assessed by histology or immunofluorescence imaging, and gene expression by RT-qPCR. Fracture healing was analyzed by microCT and histology. The study design and timeline of animal procedures (pin placement, surgery, therapeutic intervention with and without adenosine, and behavioral tests) are illustrated in FIG. 10A (weight bearing) and FIG. 10A (open field locomotion).
In all experiments, 12-week-old to 16-week-old C57BL/6J male mice (Jackson Laboratory, Bar Harbor, ME) and Lepr-cre; tdTomato reporter mice were used. The average mouse weight was 25 grams and mice were housed in groups of four to five, and kept on a 12-hr light-dark cycle with lights off at 1800 hr. All animals had ad libitum access to chow (PMI LabDiet 5001) and water. Fracture surgeries were performed as previously described (Zeng Y, et al. (2020) Adv Mater. 32:e1906022). Animals were anesthetized by isoflurane and injected with 1 mg/kg buprenorphine SR-LAB (ZooPharm, Laramie, WY). Each mouse was then placed in a supine position with the right tibia disinfected. After skin incision and reflection, proximal to the right knee, a 0.7-mm pin was inserted from the tibial plateau through the medullary cavity to stabilize the tibia, and a cut was made at the tibial midshaft to induce a transverse fracture. Bupivacaine (0.5%; Hospira, Lake Forest, IL) at ˜1 mg/kg body weight was applied at the surgical site following wound closure using 2 reflex clips (5 mm). For animals treated with control and adenosine-loaded macroporous hydrogels, macroporous hydrogels measuring approximately 5 mm (length)×3 mm (width)×1 mm (thick) containing either 1.05±0.1 mg adenosine (ADO) or no adenosine (CTL) were implanted adjacent to the fractures immediately. […] The animals were treated with the macroporous hydrogels with or without adenosine immediately following the fracture. […]

Assay [2] concerns bone marrow mesenchymal stromal cells (BM-MSCs). Kind of assay: RT-qPCR of osteogenic genes in bone marrow MSCs. The format is cell-based, mouse. The settings on record: adenosine 30 μg/mL, 14 days, absence of osteogenic induction medium. On the procedure: MSCs were isolated as previously described with some modifications (Shih Y B, et al. (2019) Sci Adv. 5:eaax1387). Briefly, the femurs, tibiae, vertebrae of mice were harvested, crushed with pestle and mortar in harvest buffer (1% v/v FBS in PBS) to release bone marrow (BM) tissue, filtered through a 40-μm cell strainer, and centrifuged at 200 rcf. Cells were seeded in a 24-well plate at a cell density of 1 million cells/cm^2 in growth media (GM) containing α-MEM, FBS (10% v/v, ThermoFisher, Cat #16000044), penicillin/streptomycin (10000 U/mL; 1% v/v) and cultured in humidified incubator (37° C., 5% CO2). The medium was replaced after 3 days and further cultured for 6 days before passage. For passaging, cells were incubated in 0.25% trypsin-EDTA for 2 min at 37° C., detached with a cell scraper, neutralized by using GM, centrifuged, and sub-cultured at a density of 8000 cells/cm^2. All experiments were performed between 1-2 passage. Osteogenic medium (OM) was prepared by supplementing GM with 10 mM β-glycerophosphate (MilliporeSigma, Cat #G9422), 50 μM ascorbic acid-2-phosphate (MilliporeSigma, Cat #A8960), and 100 nM dexamethasone (MilliporeSigma, Cat #D4902).
Cells, DRG, or bone/marrow tissues were analyzed for gene expression by quantitative real-time polymerase chain reaction (RT-qPCR). Nucleic acids were extracted with TRIzol, phase-separated with chloroform, and precipitated in isopropanol. […] Quantitative PCR was performed with iTaq Universal SYBR green reagent (Bio-Rad, Cat #1725124) with denaturation at 95° C. for 30 sec for one cycle, and amplification (denaturation+annealing/extension) at 95° C. for 5 sec and 60° C. for 30 sec for 40 cycles on a polymerase chain reaction (PCR) cycler (Bio-Rad, CFX96 Touch). […]
The expression level of each target gene was normalized to the housekeeping gene and to their respective controls and presented as fold change expressed as 2^−ΔΔCt values. […]

The mark [3] stands for this setting: 7 dpf, sum over 60 min, ratio post-/pre-fracture.

Consider `Nc1ncnc2c1ncn2[C@@H]1O[C@H](CO)[C@@H](O)[C@H]1O` [adenosine], for which, in assay [1] (7 dpf, effect size r and Cohen's d, all measured parameters), the “effect size of treatment on open field parameters” value was “large effect sizes”. In assay [1] (setting [3]), the “ambulatory activity counts vs control” value is listed as “significantly higher”, the “ambulatory time vs control” value is listed as “significantly higher”, the “rest time vs control” value is listed as “lower” and the “total distance vs control” value is recorded as “significantly higher”. In addition, in assay [1] (setting [3]), the “vertical activity counts vs control” value is “significantly higher” and the “vertical movement time vs control” value is listed as “significantly higher”. In assay [1] (7 days post-fracture, most of the 5-min intervals, ratio post-/pre-fracture), the “open field activity vs control at 5-min intervals (vertical, ambulatory, distance; lower rest time)” value is “higher levels of activity”. Also, in assay [2], the Ibsp gene expression entry is “upregulated”, the Runx2 gene expression result is recorded as “upregulated” and the Sp7 gene expression entry was “upregulated”.
